In one assay the test system is E. coli ATCC 25922. The assay can be described thus: microbe, parasite or virus in culture. Particulars: for MIC: Escherichia coli, ATCC25922, read-out: MIC against E. coli ATCC 25922. How it is done:
(§1) MICs of OaBac5mini, amoxicillin, kanamycin, florfenicol and tetracycline were determined using the two-fold broth microdilution method according to the Clinical and Laboratory Standards Institute (CLSI) guidance ([21]). MIC values of the tested antibacterial agents were determined on three independent occasions. Escherichia coli ATCC 25922 was used as the quality control in all the susceptibility tests.

Another assay relates to S. aureus ATCC 25923. The assay can be described thus: microbe, parasite or virus in culture. Particulars: for MIC: Staphylococcus aureus, ATCC25923, read-out: MIC against S. aureus ATCC 25923. How it is done: as §1
A further assay relates to S. aureus B63. The assay can be described thus: microbe, parasite or virus in culture. The settings on record: for MIC: Staphylococcus aureus, B63, read-out: MIC against S. aureus B63.
From the text: (§2) The strains of E. coli ATCC 25922 and S. aureus ATCC 25923 were purchased from the American Type Culture Collection (ATCC, Manassas, VA, United States). The strains of E. coli W13, E. coli IF4, E. coli 2, and E. coli 17 were individually isolated from the livers of diseased chickens infected by E. coli. The strains of S. aureus B5, S. aureus B9, S. aureus B54, and S. aureus B63 were individually isolated from the milk of cows with mastitis. These clinical isolates were all identified by the VITEK-32 system (bioMérieux, France) and PCR amplification sequencing.
as §1

The subject of another assay is S. aureus B9. The assay can be described thus: microbe, parasite or virus in culture. Particulars: for MIC: Staphylococcus aureus, B9, read-out: MIC against S. aureus B9.
From the text: as §2, §1

The subject of the next assay is E. coli W13. Nature of the assay: microbe, parasite or virus in culture. The settings on record: for MIC: Escherichia coli, W13, read-out: MIC against E. coli W13.
From the text: as §2, §1

The subject of another assay is S. aureus B54. The assay can be described thus: microbe, parasite or virus in culture. The settings on record: for MIC: Staphylococcus aureus, B54, read-out: MIC against S. aureus B54.
From the text: as §2, §1

In the next assay the test system is S. aureus B5. The assay can be described thus: microbe, parasite or virus in culture. The settings on record: for MIC: Staphylococcus aureus, B5, read-out: MIC against S. aureus B5.
From the text: as §2, §1

A further assay has as its system E. coli 2. The assay can be described thus: microbe, parasite or virus in culture. The settings on record: for MIC: Escherichia coli, 2, read-out: MIC against E. coli 2.
From the text: as §2, §1

The subject of a further assay is E. coli 17. The assay can be described thus: microbe, parasite or virus in culture. The settings on record: for MIC: Escherichia coli, 17, read-out: MIC against E. coli 17.
From the text: as §2, §1

The subject of a further assay is E. coli IF4. The assay can be described thus: microbe, parasite or virus in culture. The settings on record: for MIC: Escherichia coli, IF4, read-out: MIC against E. coli IF4.
From the text: as §2, §1

Another assay concerns E. coli ATCC 25922 ΔsbmA. Particulars: two-fold broth microdilution, CLSI; three independent occasions; sbmA deletion mutant. As to the method:
The method described by Datsenko and Wanner was used for chromosomal gene deletion ([20]). […] The PCR fragment (1,567 bp) was purified, digested with DpnI, repurified and transferred into E. coli ATCC 25922 by electroporation, in which the Red recombinase expression plasmid pKD46 was previously transformed and induced by L-arabinose. Transformants were selected on Luria-Bertani (LB) agar containing 50 μg/ml of kanamycin at 37°C. The inserted sequence was amplified from the kanamycin-resistant strains by using the primers SBMF: 5′-[…]-3′ and SBMR: 5′-[…]-3′ which is located outside of inactivated gene. The length of the PCR product of sbmA using the primers set SBMF and SBMR in E. coli ATCC 25922 is 1,404 bp. When sbmA is successfully inactivated, the PCR product (2,198 bp) was amplified and sequenced for the verification of the gene deletion.
as §1

Setting [1] is: two-fold broth microdilution, CLSI, three independent occasions.
Where [2] appears, read: two-fold broth microdilution, CLSI, three independent occasions, isolate from milk of cows with mastitis.
Where [3] appears, read: two-fold broth microdilution, CLSI, three independent occasions, isolate from diseased chicken liver.

Structures are written as SMILES. ≈ marks a conversion by molar mass, not a printed value. Where only a bound is given, the exact number is not on record here.

Turning to `CS(=O)(=O)c1ccc([C@@H](O)[C@@H](CF)NC(=O)C(Cl)Cl)cc1` [FLO, florfenicol], the MIC in the assay with E. coli ATCC 25922 turned out to be 4 µg/mL (≈ 11.2 µM); in the assay on S. aureus ATCC 25923, 16 µg/mL (≈ 44.7 µM); with S. aureus B63 it was 1.04 µg/mL (≈ 2.9 µM); in the assay on S. aureus B9 it was 1.67 µg/mL (≈ 4.66 µM); in the assay on E. coli W13, 320 µg/mL (≈ 893 µM); with S. aureus B54, 2.5 µg/mL (≈ 6.98 µM). Moreover, the MIC is 4.17 µg/mL (≈ 11.6 µM) in the assay on S. aureus B5, 267 µg/mL (≈ 744 µM) with E. coli 2, 80 µg/mL (≈ 223 µM) in the assay with E. coli 17 and 80 µg/mL (≈ 223 µM) in the assay on E. coli IF4. In addition, the “MIC against E. coli ATCC 25922 ΔsbmA” value with E. coli ATCC 25922 ΔsbmA turned out to be 5.3 µg/mL (≈ 14.8 µM).

For the molecule `NC[C@H]1O[C@H](O[C@H]2[C@H](O)[C@@H](O[C@H]3O[C@H](CO)[C@@H](O)[C@H](N)[C@H]3O)[C@H](N)C[C@@H]2N)[C@H](O)[C@@H](O)[C@@H]1O` [KAN, kanamycin], the “MIC against E. coli ATCC 25922” value in the assay on E. coli ATCC 25922 (setting [1]) worked out at 4 µg/mL (≈ 8.26 µM). Besides, the “MIC against S. aureus ATCC 25923” value with S. aureus ATCC 25923 (setting [1]) was 4 µg/mL (≈ 8.26 µM). Moreover, in the assay with S. aureus B63 (setting [2]), the “MIC against S. aureus B63” value was found to be 1.25 µg/mL (≈ 2.58 µM). In addition, in the assay on S. aureus B9 (setting [2]), the “MIC against S. aureus B9” value was 186.67 µg/mL (≈ 385 µM). The “MIC against E. coli W13” value against E. coli W13 (setting [3]) is 320 µg/mL (≈ 660 µM). In the assay on S. aureus B54 (setting [2]), the “MIC against S. aureus B54” value is 5.83 µg/mL (≈ 12 µM). In the assay with S. aureus B5 (setting [2]), the “MIC against S. aureus B5” value came out at 40 µg/mL (≈ 82.6 µM). Besides, the “MIC against E. coli 2” value in the assay on E. coli 2 (setting [3]) was >640 µg/mL. Also, the “MIC against E. coli 17” value against E. coli 17 (setting [3]) came to 320 µg/mL (≈ 660 µM). For the same molecule, the “MIC against E. coli IF4” value with E. coli IF4 (setting [3]) is >640 µg/mL.

On to `CC1(C)S[C@@H]2[C@H](NC(=O)[C@H](N)c3ccc(O)cc3)C(=O)N2[C@H]1C(=O)O` [AMO, amoxicillin], for which the MIC is 8 µg/mL (≈ 21.9 µM) in the assay with E. coli ATCC 25922; 0.67 µg/mL (≈ 1.83 µM) in the assay with S. aureus ATCC 25923; 2.08 µg/mL (≈ 5.69 µM) in the assay on S. aureus B63; 3.33 µg/mL (≈ 9.11 µM) in the assay with S. aureus B9; > 640 µg/mL with E. coli W13; 3.33 µg/mL (≈ 9.11 µM) in the assay with S. aureus B54. The MIC in the assay on S. aureus B5 is 427 µg/mL (≈ 1170 µM); in the assay on E. coli 2, > 640 µg/mL; in the assay on E. coli 17, > 640 µg/mL; with E. coli IF4, > 640 µg/mL. Moreover, in the assay with E. coli ATCC 25922 ΔsbmA, the “MIC against E. coli ATCC 25922 ΔsbmA” value amounted to 8 µg/mL (≈ 21.9 µM).

As for `CN(C)[C@@H]1C(O)=C(C(N)=O)C(=O)[C@@]2(O)C(O)=C3C(=O)c4c(O)cccc4[C@@](C)(O)[C@H]3C[C@@H]12` [TET, tetracycline], the MIC in the assay on E. coli ATCC 25922 is 2 µg/mL (≈ 4.5 µM); in the assay with S. aureus ATCC 25923, 1 µg/mL (≈ 2.25 µM); in the assay on S. aureus B63, 0.42 µg/mL (≈ 0.945 µM); in the assay on S. aureus B9, 80 µg/mL (≈ 180 µM); with E. coli W13 it was 160 µg/mL (≈ 360 µM); in the assay on S. aureus B54, 66.7 µg/mL (≈ 150 µM). The MIC with S. aureus B5 came out at 0.08 µg/mL (≈ 0.18 µM); in the assay on E. coli 2 it was 1 µg/mL (≈ 2.25 µM); in the assay on E. coli 17, 160 µg/mL (≈ 360 µM); in the assay on E. coli IF4 it was 133 µg/mL (≈ 300 µM). The “MIC against E. coli ATCC 25922 ΔsbmA” value against E. coli ATCC 25922 ΔsbmA was 1.67 µg/mL (≈ 3.76 µM).

Values taken from publication PMC9995905, “Characteristics of antimicrobial peptide OaBac5mini and its bactericidal mechanism against Escherichia coli” (Frontiers in Veterinary Science, 2023).
